Laboratory results: patent US20230086703A1, “N-(4-(5-chloropyridin-3-yl)phenyl)-2-(2-(cyclopropanesulfonamido)pyrimidin-4-yl) butanamide derivatives and related compounds as human CTPS1 inhibitors for the treatment of proliferative diseases” (Step Pharma S.A.S., priority 2019, published 2023)

Target: T1, human CTPS1 (Homo sapiens, UniProt P17812)
T1 construct: FLAG (with GG linker); His8 (with GG linker); purchased Proteros biostructures GmbH
T1 sequence (P17812 1-591): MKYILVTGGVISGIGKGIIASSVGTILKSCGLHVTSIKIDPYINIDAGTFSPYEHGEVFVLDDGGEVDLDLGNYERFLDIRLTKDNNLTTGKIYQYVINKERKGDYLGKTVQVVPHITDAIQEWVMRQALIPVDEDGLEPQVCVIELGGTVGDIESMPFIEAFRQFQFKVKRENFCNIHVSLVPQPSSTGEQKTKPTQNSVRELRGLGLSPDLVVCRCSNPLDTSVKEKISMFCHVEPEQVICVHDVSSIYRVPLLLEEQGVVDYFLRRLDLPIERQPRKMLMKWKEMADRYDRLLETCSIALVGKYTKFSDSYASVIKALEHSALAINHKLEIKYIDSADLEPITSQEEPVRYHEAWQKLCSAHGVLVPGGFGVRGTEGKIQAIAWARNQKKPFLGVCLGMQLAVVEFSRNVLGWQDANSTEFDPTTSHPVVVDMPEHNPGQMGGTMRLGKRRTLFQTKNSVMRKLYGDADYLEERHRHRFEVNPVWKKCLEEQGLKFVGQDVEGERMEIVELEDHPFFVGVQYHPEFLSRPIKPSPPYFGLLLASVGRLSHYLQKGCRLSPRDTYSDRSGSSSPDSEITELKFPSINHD
Test: Human CTPS1 enzyme inhibition, ADP-Glo Max assay
Type: biochemical
Conditions: ADP-Glo Max assay; Table 10; read-out: Human CTPS1 Enzyme Inhibition, IC50 grouped by potency range (CTPS1)
Summary of the method: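 Read-out is ADP-Glo Max luminescence: residual ATP depleted (60 min), then produced ADP converted back to ATP for luciferase detection (60 min). Beforehand, protein and compound were mixed for 10 min at 25 °C in Tris buffer pH 8.0 with MgCl2, Tween-20 and 2 mM L-cysteine. Results expressed as percentage inhibition per concentration.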

| Compound | IC50 [nM] |
| --- | --- |
| CN(C(=O)C(C)(C)c1csc(NS(=O)(=O)C2CC2)n1)c1ccc(-c2cncc(C#N)c2)cc1 [T309, N-(4-(5-cyanopyridin-3-yl)phenyl)-2-(2-(cyclopropanesulfonamido)thiazol-4-yl)-N,2-dimethylpropanamide] | 1000 to 10000 |
| CC(C)CS(=O)(=O)Nc1nc(C(C)(C)C(=O)Nc2ccc(-c3cccnc3)cc2)cs1 [T311, 2-methyl-2-(2-((2-methylpropyl)sulfonamido)thiazol-4-yl)-N-(4-(pyridin-3-yl)phenyl)propanamide] | 1000 to 10000 |
| CN(C(=O)C(C)(C)c1csc(NS(=O)(=O)C2CC2)n1)c1ccc(-c2cncc(Cl)c2)cc1 [T318, N-(4-(5-chloropyridin-3-yl)phenyl)-2-(2-(cyclopropanesulfonamido)thiazol-4-yl)-N,2-dimethylpropanamide] | 1000 to 10000 |
| Cc1sc(NS(=O)(=O)C2CC2)nc1C(C)(C)C(=O)Nc1ccc(-c2cccnc2)cc1 [T319, 2-(2-(cyclopropanesulfonamido)-5-methylthiazol-4-yl)-2-methyl-N-(4-(pyridin-3-yl)phenyl)propanamide] | 1000 to 10000 |
| Cc1cc(-c2cncc(C#N)c2)cc(C)c1NC(=O)C(C)(C)c1csc(NS(=O)(=O)C2CC2)n1 [T320, N-(4-(5-cyanopyridin-3-yl)-2,6-dimethylphenyl)-2-(2-(cyclopropanesulfonamido)thiazol-4-yl)-2-methylpropanamide] | 100 to 1000 |
| Cc1cc(-c2cncc(Cl)c2)cc(C)c1NC(=O)C(C)(C)c1csc(NS(=O)(=O)C2CC2)n1 [T321, N-(4-(5-chloropyridin-3-yl)-2,6-dimethylphenyl)-2-(2-(cyclopropanesulfonamido)thiazol-4-yl)-2-methylpropanamide] | < 100 |
| CCOc1cncc(-c2ccc(NC(=O)C(N)c3csc(NS(=O)(=O)C4CC4)n3)cc2)n1 (centres unmarked) [T325, 2-Amino-2-(2-(cyclopropanesulfonamido)thiazol-4-yl)-N-(4-(6-ethoxypyrazin-2-yl)phenyl)acetamide] | < 100 |
| CCOc1cncc(-c2ccc(NC(=O)C(F)(F)c3csc(NS(=O)(=O)C4CC4)n3)nc2)n1 [T422, 2-(2-(cyclopropanesulfonamido)thiazol-4-yl)-N-(5-(6-ethoxypyrazin-2-yl)pyridin-2-yl)-2,2-difluoroacetamide] | 100 to 1000 |
| CCOc1cncc(-c2ccc(NC(=O)Cc3csc(NS(=O)(=O)C4CC4)n3)c(F)c2)n1 [T423, 2-(2-(cyclopropanesulfonamido)thiazol-4-yl)-N-(4-(6-ethoxypyrazin-2-yl)-2-fluorophenyl)acetamide] | < 100 |
| CC(C)(C(=O)Nc1ccc(-c2cncc(C(F)(F)F)c2)cc1F)c1csc(NS(C)(=O)=O)n1 [T426, N-(2-fluoro-4-(5-(trifluoromethyl)pyridin-3-yl)phenyl)-2-methyl-2-(2-(methylsulfonamido)thiazol-4-yl)propanamide] | 100 to 1000 |
| CC(C)(C(=O)Nc1ccc(-c2cncc(C(F)(F)F)c2)cc1F)c1csc(NS(=O)(=O)CC2CC2)n1 [T427, 2-(2-((cyclopropylmethyl)sulfonamido)thiazol-4-yl)-N-(2-fluoro-4-(5-(trifluoromethyl)pyridin-3-yl)phenyl)-2-methylpropanamide] | 100 to 1000 |
| CCOc1cncc(-c2ccc(NC(=O)C(C)(C)c3csc(NS(C)(=O)=O)n3)c(C(F)(F)F)c2)n1 [T429, N-(4-(6-ethoxypyrazin-2-yl)-2-(trifluoromethyl)phenyl)-2-methyl-2-(2-(methylsulfonamido)thiazol-4-yl)propanamide] | < 100 |
| CCOc1cncc(-c2ccc(NC(=O)C(C)(C)c3csc(NS(C)(=O)=O)n3)c(F)c2)n1 [T431, N-(4-(6-ethoxypyrazin-2-yl)-2-fluorophenyl)-2-methyl-2-(2-(methylsulfonamido)thiazol-4-yl)propanamide] | < 100 |
| CCOc1cncc(-c2ccc(NC(=O)C(C)(C)c3csc(NS(=O)(=O)CCOC)n3)c(F)c2)n1 [T432, N-(4-(6-ethoxypyrazin-2-yl)-2-fluorophenyl)-2-(2-((2-methoxyethyl)sulfonamido)thiazol-4-yl)-2-methylpropanamide] | 100 to 1000 |

Further lines, results first:

| IC50 [nM] | Compound |
| --- | --- |
| 100 to 1000 | CC(C)(C(=O)Nc1ccc(-c2cccnc2)cc1)c1csc(NS(=O)(=O)C2CCC2)n1 [T306, 2-(2-(cyclobutanesulfonamido)thiazol-4-yl)-2-methyl-N-(4-(pyridin-3-yl)phenyl)propanamide] |
| < 100 | CCOc1cncc(-c2ccc(NC(=O)C(C)(C)c3csc(NS(=O)(=O)C4CCC4)n3)cc2)n1 [T307, 2-(2-(cyclobutanesulfonamido)thiazol-4-yl)-N-(4-(6-ethoxypyrazin-2-yl)phenyl)-2-methylpropanamide] |
| 100 to 1000 | CC(C)(C(=O)Nc1ccc(-c2cncc(C(F)(F)F)n2)cc1)c1csc(NS(=O)(=O)C2CCC2)n1 [T308, 2-(2-(cyclobutanesulfonamido)thiazol-4-yl)-2-methyl-N-(4-(6-(trifluoromethyl)pyrazin-2-yl)phenyl)propanamide] |
| 1000 to 10000 | CN(C(=O)C(C)(C)c1csc(NS(=O)(=O)C2CC2)n1)c1ccc(-c2cncc(C(F)(F)F)n2)cc1 [T310, 2-(2-(cyclopropanesulfonamido)thiazol-4-yl)-N,2-dimethyl-N-(4-(6-(trifluoromethyl)pyrazin-2-yl)phenyl)propanamide] |
| 100 to 1000 | CCOc1cncc(-c2ccc(NC(=O)C(C)(C)c3csc(NS(=O)(=O)CC(C)C)n3)cc2)n1 [T312, N-(4-(6-ethoxypyrazin-2-yl)phenyl)-2-methyl-2-(2-((2-methylpropyl)sulfonamido)thiazol-4-yl)propanamide] |
| 100 to 1000 | CC(C)CS(=O)(=O)Nc1nc(C(C)(C)C(=O)Nc2ccc(-c3cncc(C(F)(F)F)n3)cc2)cs1 [T313, 2-methyl-2-(2-((2-methylpropyl)sulfonamido)thiazol-4-yl)-N-(4-(6-(trifluoromethyl)pyrazin-2-yl)phenyl)propanamide] |
| 100 to 1000 | Cc1cc(NC(=O)C(C)(C)c2csc(NS(=O)(=O)C3CC3)n2)ccc1-c1cncc(C#N)c1 [T322, N-(4-(5-cyanopyridin-3-yl)-3-methylphenyl)-2-(2-(cyclopropanesulfonamido)thiazol-4-yl)-2-methylpropanamide] |
| 1000 to 10000 | CC(C)(C(=O)Nc1ccc(-c2cncc(Cl)c2)c(C(F)(F)F)c1)c1csc(NS(=O)(=O)C2CC2)n1 [T370, N-(4-(5-chloropyridin-3-yl)-3-(trifluoromethyl)phenyl)-2-(2-(cyclopropanesulfonamido)thiazol-4-yl)-2-methylpropanamide] |
| < 100 | CCOc1cncc(-c2ccc(NC(=O)Cc3csc(NS(=O)(=O)C4CC4)n3)cc2)n1 [T424, 2-(2-(cyclopropanesulfonamido)thiazol-4-yl)-N-(4-(6-ethoxypyrazin-2-yl)phenyl)acetamide] |
| < 100 | CC(C)(C(=O)Nc1ccc(-c2cncc(C(F)(F)F)n2)cn1)c1csc(NS(C)(=O)=O)n1 [T425, 2-methyl-2-(2-(methylsulfonamido)thiazol-4-yl)-N-(5-(6-(trifluoromethyl)pyrazin-2-yl)pyridin-2-yl)propanamide] |
| 100 to 1000 | Cc1c(Cl)cncc1-c1ccc(NC(=O)C(C)(C)c2csc(NS(=O)(=O)C3CC3)n2)cc1 [T428, N-(4-(5-chloro-4-methylpyridin-3-yl)phenyl)-2-(2-(cyclopropanesulfonamido)thiazol-4-yl)-2-methylpropanamide] |
| 100 to 1000 | CC(C)(C(=O)Nc1ccc(-c2cncc(C(F)(F)F)n2)cc1F)c1csc(NS(=O)(=O)CC2CC2)n1 [T430, 2-(2-((cyclopropylmethyl)sulfonamido)thiazol-4-yl)-N-(2-fluoro-4-(6-(trifluoromethyl)pyrazin-2-yl)phenyl)-2-methylpropanamide] |
| < 100 | CCOc1cncc(-c2ccc(NC(=O)C(C)(C)c3csc(NS(C)(=O)=O)n3)cc2)n1 [T434, N-(4-(6-ethoxypyrazin-2-yl)phenyl)-2-methyl-2-(2-(methylsulfonamido)thiazol-4-yl)propanamide] |
| < 100 | Cc1cncc(-c2ccc(NC(=O)C(C)(C)c3csc(NS(=O)(=O)C4CC4)n3)nc2)n1 [T464, 2-(2-(cyclopropanesulfonamido)thiazol-4-yl)-2-methyl-N-(5-(6-methylpyrazin-2-yl)pyridin-2-yl)propanamide] |
| 1000 to 10000 | Cc1cc(-c2cncc(C#N)n2)ccc1NC(=O)C(C)(C)c1csc(NS(=O)(=O)C2CC2)n1 [T465, N-(4-(6-cyanopyrazin-2-yl)-2-methylphenyl)-2-(2-(cyclopropanesulfonamido)thiazol-4-yl)-2-methylpropanamide] |
